Among the data in patent US20260273073A1, “TRANSDUCIN BETA-LIKE PROTEIN 1 DEGRADERS” (Ohio State Innovation Foundation, priority 2023, published 2026) are IC50 values, retold here.

Holding throughout (type): cell-based
The test system of one experiment is Granta-519. The experiment can be described thus: PROTAC compounds evaluated against lymphoma cell line Granta-519. The note with it: Granta-519 lymphoma cell line. On the procedure:
(§1) A library of PROTAC compounds was prepared according to the sequences depicted in FIGS. 1 and 2. These compounds were evaluated against three different lymphoma cell lines (Riva, Pfeiffer, and Granta-519): […]

The next experiment deals with Pfeiffer. Put plainly: PROTAC compounds evaluated against lymphoma cell line Pfeiffer. On the procedure:
as §1

A further experiment relates to Riva. The experiment can be described thus: PROTAC compounds evaluated against lymphoma cell line Riva. On the procedure:
as §1

Molecules are shown by their SMILES. Like-named read-outs stand apart in the source and are kept apart here. A value given as a limit tells only on which side of the number the result lay.

Consider `CC1CC(C)CN(S(=O)(=O)c2ccc3c(c2)C(=NO)c2cc(S(=O)(=O)N4CCN(C(=O)CCOCCOCCNc5cccc6c5C(=O)N(C5CCC(=O)NC5=O)C6=O)CC4)ccc2C3=NO)C1` (stereo not drawn) [RY-3-113], for which the IC50 in the experiment on Granta-519, with Pfeiffer and with Riva was > 20000 nM each time.

As for `CC1CC(C)CN(S(=O)(=O)c2ccc3c(c2)C(=NO)c2cc(S(=O)(=O)N4CCN(C(=O)CCCCNc5cccc6c5C(=O)N(C5CCC(=O)NC5=O)C6=O)CC4)ccc2C3=NO)C1` (stereo not drawn) [RY-3-120], the IC50 with Granta-519 came to 496 nM; with Pfeiffer it was 647 nM; in the experiment on Riva, 560 nM.

`CC1CC(C)CN(S(=O)(=O)c2ccc3c(c2)C(=NO)c2cc(S(=O)(=O)N4CCN(C(=O)CCOCCNc5cccc6c5C(=O)N(C5CCC(=O)NC5=O)C6=O)CC4)ccc2C3=NO)C1` (stereo not drawn) [RY-3-122]: the IC50 with Granta-519, in the experiment on Pfeiffer and in the experiment with Riva was > 20000 nM throughout.

For the compound `CC1CC(C)CN(S(=O)(=O)c2ccc3c(c2)C(=NO)c2cc(S(=O)(=O)N4CCN(C(=O)CCCCCCNc5cccc6c5C(=O)N(C5CCC(=O)NC5=O)C6=O)CC4)ccc2C3=NO)C1` (stereo not drawn) [RY-3-108], the IC50 in the experiment with Granta-519 was 439 nM; with Pfeiffer, 343 nM; in the experiment with Riva it was 605 nM.

On to `CC1CC(C)CN(S(=O)(=O)c2ccc3c(c2)C(=NO)c2cc(S(=O)(=O)N4CC(C)CC(C)C4)ccc2C3=NOCCCNC(=O)CCNc2cccc3c2C(=O)N(C2CCC(=O)NC2=O)C3=O)C1` (stereo not drawn) [RY-3-127], for which the IC50 with Granta-519 came out at 323 nM; in the experiment with Pfeiffer it was 189 nM; in the experiment on Riva it was 651 nM.

On to `CC1CC(C)CN(S(=O)(=O)c2ccc3c(c2)C(=NO)c2cc(S(=O)(=O)N4CC(C)CC(C)C4)ccc2C3=NOCCCNC(=O)CCOCCOCCOCCNc2cccc3c2C(=O)N(C2CCC(=O)NC2=O)C3=O)C1` (stereo not drawn) [RY-3-132], for which the IC50 in the experiment on Granta-519, in the experiment with Pfeiffer and in the experiment with Riva was > 20000 nM in each case.

`CC1CC(C)CN(S(=O)(=O)c2ccc3c(c2)C(=NO)c2cc(S(=O)(=O)N4CC(C)CC(C)C4)ccc2C3=NOCCCNC(=O)CCCCCCCCCCNc2cccc3c2C(=O)N(C2CCC(=O)NC2=O)C3=O)C1` (stereo not drawn) [RY-3-124]: the IC50 with Granta-519, in the experiment on Pfeiffer and in the experiment with Riva was > 20000 nM each time.

For the compound `CC1CC(C)CN(S(=O)(=O)c2ccc3c(c2)C(=NO)c2cc(S(=O)(=O)N4CCN(C(=O)CCOCCOCCOCCNc5cccc6c5C(=O)N(C5CCC(=O)NC5=O)C6=O)CC4)ccc2C3=NO)C1` (stereo not drawn) [RY-3-123], the IC50 in the experiment on Granta-519, in the experiment on Pfeiffer and in the experiment with Riva was > 20000 nM throughout.

In the case of `CC1CC(C)CN(S(=O)(=O)c2ccc3c(c2)C(=NO)c2cc(S(=O)(=O)N4CCN(C(=O)CCCCCCCCCCNc5cccc6c5C(=O)N(C5CCC(=O)NC5=O)C6=O)CC4)ccc2C3=NO)C1` (stereo not drawn) [RY-3-121], the IC50 with Granta-519 is 1160 nM; in the experiment with Pfeiffer, 2500 nM; in the experiment on Riva, 1160 nM.

For `CC1CC(C)CN(S(=O)(=O)c2ccc3c(c2)C(=NO)c2cc(S(=O)(=O)N4CCN(C(=O)CCNc5cccc6c5C(=O)N(C5CCC(=O)NC5=O)C6=O)CC4)ccc2C3=NO)C1` (stereo not drawn) [RY-3-119], the concentration for half-maximal inhibition (IC50) in the experiment with Granta-519 came out at 399 nM; in the experiment with Pfeiffer it was 564 nM; in the experiment with Riva, 797 nM.

Regarding `CC1CC(C)CN(S(=O)(=O)c2ccc3c(c2)C(=NO)c2cc(S(=O)(=O)N4CC(C)CC(C)C4)ccc2C3=NOCCCNC(=O)CCCCNc2cccc3c2C(=O)N(C2CCC(=O)NC2=O)C3=O)C1` (stereo not drawn) [RY-3-128], the IC50 in the experiment on Granta-519 was found to be 523 nM; in the experiment on Pfeiffer, 398 nM; in the experiment with Riva, 795 nM.

In the case of `CC1CC(C)CN(S(=O)(=O)c2ccc3c(c2)C(=NO)c2cc(S(=O)(=O)N4CC(C)CC(C)C4)ccc2C3=NOCCCNC(=O)CCOCCNc2cccc3c2C(=O)N(C2CCC(=O)NC2=O)C3=O)C1` (stereo not drawn) [RY-3-129], the IC50 in the experiment on Granta-519 turned out to be 1040 nM; with Pfeiffer, 554 nM; with Riva, 1350 nM.

Regarding `CC1CC(C)CN(S(=O)(=O)c2ccc3c(c2)C(=NO)c2cc(S(=O)(=O)N4CC(C)CC(C)C4)ccc2C3=NOCCCNC(=O)CCCCCCNc2cccc3c2C(=O)N(C2CCC(=O)NC2=O)C3=O)C1` (stereo not drawn) [RY-3-130], the IC50 is 530 nM with Granta-519, 355 nM in the experiment on Pfeiffer and 929 nM with Riva.

Regarding `CC1CC(C)CN(S(=O)(=O)c2ccc3c(c2)C(=NO)c2cc(S(=O)(=O)N4CC(C)CC(C)C4)ccc2C3=NOCCCNC(=O)CCOCCOCCNc2cccc3c2C(=O)N(C2CCC(=O)NC2=O)C3=O)C1` (stereo not drawn) [RY-3-131], the IC50 was > 20000 nM in the experiment on Granta-519, 1880 nM with Pfeiffer and > 20000 nM in the experiment with Riva.

Take `C[C@@H]1C[C@H](C)CN(S(=O)(=O)c2ccc3c(c2)C(=NO)c2cc(S(=O)(=O)N4C[C@H](C)C[C@H](C)C4)ccc2C3=NO)C1` [Tegavivint, tegavivint, reference compound]: the half-maximal inhibitory concentration (IC50) came out at 94 nM in the experiment on Granta-519 (Homo sapiens), 175 nM with Pfeiffer (Homo sapiens) and 86 nM in the experiment with Riva.

Broadly, the IC50 is the midpoint of a concentration-inhibition curve. Low values mean inhibition by little substance, high ones a need for much substance.
